Patent US20230011571A1, “SMALL MOLECULE FURIN INHIBITORS FOR TREATING INFECTIOUS DISEASES” (BP Asset V, Inc., priority 2019, published 2023)

Assays:
Assay type in all cases: cell-based
[1] = test system: Chikungunya virus (CHIKV); assay: microbe, parasite or virus in culture; conditions: Chikungunya virus, Vero, 48 h, read-out: Percent viral inhibition CHKV
[2] = test system: dengue virus (DENV); assay: microbe, parasite or virus in culture; conditions: Dengue virus, Vero, 120 h, read-out: Percent viral inhibition DENY
[3] = test system: Marburg virus (MARV); assay: organism not typed; conditions: Vero, 72 h, read-out: Percent viral inhibition MARV

| SMILES | inhibition at 1 µM [1] [%] | inhibition at 1 µM [2] [%] | inhibition at 1 µM [3] [%] |
| --- | --- | --- | --- |
| CNC(=O)OCC1CCN(Cc2cc(Oc3ccc(N4CCN(CCC(=O)O)CC4)nc3)nc(-c3cc(Cl)cc(Cl)c3)c2)CC1 [Example 77, 3-(4-(5-((6-(3,5-dichlorophenyl)-4-((4-(((methylcarbamoyl)oxy)methyl)piperidin-1-yl)methyl)pyridin-2-yl)oxy)pyridin-2-yl)piperazin-1-yl) propanoic acid] | 42 | 20.6 | 57.2 |
| CS(=O)(=O)N[C@H]1[C@@H]2CCN(Cc3cc(Oc4cnc(N5CCN(CCC(=O)O)CC5)nc4)nc(-c4cc(Cl)cc(Cl)c4)c3)CC[C@@H]21 [Example 80, 3-(4-(5-((6-(3,5-dichlorophenyl)-4-(((1R,7S,8r)-8-(methylsulfonamido)-4-azabicyclo[5.1.0]octan-4-yl)methyl)pyridin-2-yl)oxy)pyrimidin-2-yl)piperazin-1-yl)propanoic acid] | 25 | 0 | 64.6 |
| CC(CCN1CCN(c2ncc(Oc3cc(CN4CC[C@@H]5[C@H](CC4)[C@H]5NS(C)(=O)=O)cc(-c4cc(Cl)cc(Cl)c4)n3)cn2)CC1)C(=O)O (stereo partly drawn) [Example 81, 4-(4-(5-((6-(3,5-dichlorophenyl)-4-(((1R,7S,8r)-8-(methylsulfonamido)-4-azabicyclo[5.1.0]octan-4-yl)methyl)pyridin-2-yl)oxy)pyrimidin-2-yl)piperazin-1-yl)-2-methylbutanoic acid] | 26.1 | 50.5 | 73.7 |
| CC(=O)N[C@H]1[C@@H]2CCN(Cc3cc(Oc4cnc(N5CCN(CCC(C)C(=O)O)CC5)nc4)nc(-c4cc(Cl)cc(Cl)c4)c3)CC[C@@H]21 (stereo partly drawn) [Example 82, 4-(4-(5-((4-(((1R,7S,8r)-8-acetamido-4-azabicyclo[5.1.0]octan-4-yl)methyl)-6-(3,5-dichlorophenyl)pyridin-2-yl)oxy)pyrimidin-2-yl)piperazin-1-yl)-2-methylbutanoic acid] | 18.4 | 19.8 | 53.2 |
| CC(CCN1CCN(c2ncc(Oc3cc(CN4CCCC4)cc(-c4cc(Cl)cc(Cl)c4)n3)cn2)CC1)C(=O)O (stereo not drawn) [Example 83, 4-(4-(5-((6-(3,5-dichlorophenyl)-4-(pyrrolidin-1-ylmethyl)pyridin-2-yl)oxy)pyrimidin-2-yl)piperazin-1-yl)-2-methylbutanoic acid] | 33.4 | 28.9 | 53.8 |
| CN1CCN(c2ncc(Oc3cc(CN4CCC(CCS(N)(=O)=O)CC4)cc(-c4cc(Cl)cc(Cl)c4)n3)cn2)CC1 [Example 87, 2-(1-((2-(3,5-dichlorophenyl)-6-((2-(4-methylpiperazin-1-yl)pyrimidin-5-yl)oxy)pyridin-4-yl)methyl)piperidin-4-yl)ethanesulfonamide] | 16.9 | 30.2 | 30.3 |
| CC(=O)NCC1CCN(Cc2cc(Oc3cnc(N4CCN(CCC(N)=O)CC4)nc3)nc(-c3cc(Cl)cc(Cl)c3)c2)CC1 [Example 88, 3-(4-(5-((4-((4-(acetamidomethyl)piperidin-1-yl)methyl)-6-(3,5-dichlorophenyl)pyridin-2-yl)oxy)pyrimidin-2-yl)piperazin-1-yl)propanamide] | 10.9 | 54.6 | 58.6 |
| CC(=O)NCC1CCN(Cc2cc(-c3cc(Cl)cc(Cl)c3)nc(Oc3ccc(N4CCNCC4)nc3)n2)CC1 [Example 90, N-((1-((6-(3,5-dichlorophenyl)-2-((6-(piperazin-1-yl)pyridin-3-yl)oxy)pyrimidin-4-yl)methyl)piperidin-4-yl)methyl)acetamide] | 44.2 | 54.9 | 75.5 |
| CC(=O)NCC1CCN(Cc2cc(Oc3cnc(N4CCN(CCO)CC4)nc3)nc(-c3cc(Cl)cc(Cl)c3)c2)CC1 [Example 93, N-((1-((2-(3,5-dichlorophenyl)-6-((2-(4-(2-hydroxyethyl)piperazin-1-yl)pyrimidin-5-yl)oxy)pyridin-4-yl)methyl)piperidin-4-yl)methyl)acetamide] | 0 | 56.7 | 10.4 |
| CNC(=O)CCN1CCN(c2ncc(Oc3cc(CN4CCC(CNC(C)=O)CC4)cc(-c4cc(Cl)cc(Cl)c4)n3)cn2)CC1 [Example 94, 3-(4-(5-((4-((4-(acetamidomethyl)piperidin-1-yl)methyl)-6-(3,5-dichlorophenyl)pyridin-2-yl)oxy)pyrimidin-2-yl)piperazin-1-yl)-N-methylpropanamide] | 31.3 | 41.5 | 66 |
| CC(=O)NCC1CCN(Cc2cc(Oc3cnc(N4CCN(C(C)CC(N)=O)CC4)nc3)nc(-c3cc(Cl)cc(Cl)c3)c2)CC1 (stereo not drawn) [Example 95] | 46.6 | 58.1 | 59 |
| CNCc1cc(Oc2ccc(N3CCNCC3)nc2)cc(-c2cc(Cl)cc(Cl)c2)c1 [Example 98, 1-(3′,5′-dichloro-5-((6-(piperazin-1-yl)pyridin-3-yl)oxy)-[1,1′-biphenyl]-3-yl)-N-methylmethanamine] | 0 | 0 | 0 |
| NCCNc1ccc(Oc2cc(CN3CCOCC3)cc(-c3cc(Cl)cc(Cl)c3)c2)cn1 [Example 99, N1-(5-((3′,5′-dichloro-5-(morpholinomethyl)-[1,1′-biphenyl]-3-yl)oxy)pyridin-2-yl)ethane-1,2-diamine] | 0 | 15.4 | 0 |
| CC(=O)NCC1CCN(Cc2cc(Oc3ccc(NCC(C)(C)N)nc3)cc(-c3cc(Cl)cc(Cl)c3)c2)CC1 [Example 105, N-((1-((5-((6-((2-amino-2-methylpropyl)amino)pyridin-3-yl)oxy)-3′,5′-dichloro-[1,1′-biphenyl]-3-yl)methyl)piperidin-4-yl)methyl)acetamide] | 0 | 19.9 | 0 |
| CNCc1cc(Oc2ccc(N3CCC(N)CC3)nc2)nc(-c2cc(C)cc(Cl)c2)c1 [Example 108, 1-(5-((6-(3-chloro-5-methylphenyl)-4-((methylamino)methyl)pyridin-2-yl)oxy)pyridin-2-yl)piperidin-4-amine] | 16.4 | 0 | 65.7 |
| CC(=O)NCC1CCN(Cc2cc(Oc3cnc(N4CCNCC4)cn3)nc(-c3cc(Cl)cc(Cl)c3)c2)CC1 [Example 109, N-((1-((2-(3,5-dichlorophenyl)-6-((5-(piperazin-1-yl)pyrazin-2-yl)oxy)pyridin-4-yl)methyl)piperidin-4-yl)methyl)acetamide] | 7.33 | 0 | 32.9 |
| CC(=O)NCC1CCN(Cc2cc(Oc3cnc(N4CCN(C)CC4)cn3)nc(-c3cc(Cl)cc(Cl)c3)c2)CC1 [Example 110, N-((1-((2-(3,5-dichlorophenyl)-6-((5-(4-methylpiperazin-1-yl)pyrazin-2-yl)oxy)pyridin-4-yl)methyl)piperidin-4-yl)methyl)acetamide] | 9.88 | 13.6 | 59.5 |
| CC(=O)NCC1CCN(Cc2cc(Oc3cnc(N4CCN(CCC(=O)O)CC4)cn3)nc(-c3cc(Cl)cc(Cl)c3)c2)CC1 [Example 111] | 22.3 | 48.8 | 29.8 |
| O=C(O)CCC1CCN(Cc2cc(Oc3cnc(N4CCN(CCO)CC4)nc3)cc(-c3cc(Cl)cc(Cl)c3)c2)CC1 [Example 114, 3-(1-((3′,5′-dichloro-5-((2-(4-(2-hydroxyethyl)piperazin-1-yl)pyrimidin-5-yl)oxy)-[1,1′-biphenyl]-3-yl)methyl)piperidin-4-yl)propanoic acid] | 26.6 | 38.1 | 74.2 |
| CC(=O)NCC1CCN(Cc2cc(Oc3ccc(N4CCN(CCC(=O)O)CC4)nc3)nc(-c3cc(F)cc(Cl)c3)c2)CC1 [Example 115, 3-(4-(5-((4-((4-(acetamidomethyl)piperidin-1-yl)methyl)-6-(3-chloro-5-fluorophenyl)pyridin-2-yl)oxy)pyridin-2-yl)piperazin-1-yl)propanoic acid] | 4.53 | 2.3 | 59.2 |
| CC(=O)NCC1CCN(Cc2cc(Oc3ccc(N4CCN(CCC(=O)O)CC4)nc3)nc(-c3cc(F)cc(Br)c3)c2)CC1 [Example 116] | 10.4 | 6.7 | 4.3 |
| CN1CCN(c2ncc(Oc3cc(CN4CCC(CC(=O)O)CC4)cc(-c4cc(Cl)cc(Cl)c4)c3)cn2)CC1 [Example 117, 2-(1-((3′,5′-dichloro-5-((2-(4-methylpiperazin-1-yl)pyrimidin-5-yl)oxy)-[1,1′-biphenyl]-3-yl)methyl)piperidin-4-yl)acetic acid] | 18 | 28.6 | 43.6 |
| CC(=O)NCC1CCN(Cc2cc(Oc3cnc(N4CCCNCC4)nc3)nc(-c3cc(Cl)cc(Cl)c3)c2)CC1 [Example 118, N-((1-((2-((2-(1,4-diazepan-1-yl)pyrimidin-5-yl)oxy)-6-(3,5-dichlorophenyl)pyridin-4-yl)methyl)piperidin-4-yl)methyl)acetamide] | 0 | 15.6 | 0 |
| O=C(O)COC1CCN(Cc2cc(Oc3cnc(N4CCNCC4)nc3)nc(-c3cc(Cl)cc(Cl)c3)c2)CC1 [Example 122, 2-((1-((2-(3,5-dichlorophenyl)-6-((2-(piperazin-1-yl)pyrimidin-5-yl)oxy)pyridin-4-yl)methyl)piperidin-4-yl)oxy)acetic acid] | 35.5 | 33.7 | 23.6 |
| O=C(O)CC1CCN(Cc2cc(Oc3cnc(N4CCNCC(O)C4)nc3)nc(-c3cc(Cl)cc(Cl)c3)c2)CC1 (stereo not drawn) [Example 123, 2-(1-((2-(3,5-dichlorophenyl)-6-((2-(6-hydroxy-1,4-diazepan-1-yl)pyrimidin-5-yl)oxy)pyridin-4-yl)methyl)piperidin-4-yl)acetic acid] | 19.2 | 39.9 | 50.6 |
